Laboratory results published in PubChem BioAssay AID248 (DTP/NCI, 2004).
“And” between values parts separate entries of the source, which are not always exact repeats. Identical values can stand only once. Inconclusive results and toxic doses are left out. Rule as the data show it: active = T/C of 150% or more; inactive = T/C below 125%.

Tested on: L1210 leukemia ip in BDF1 mice, survival T/C
Assay: NCI In Vivo Anticancer Drug Screen. Data for tumor model L1210 Leukemia (intraperitoneal) in B6D2F1 (BDF1) mice
Conditions: endpoint: mean survival time, higher = longer survival
In short: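 Antitumor effect is assessed in tumor-bearing animals. Survival in the compound arm is compared with a vehicle-dosed control arm and expressed as their quotient.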

[1] = dose: 100.0 mg/kg/injection, schedule: Q01DX001 (ip), vehicle: saline
[2] = dose: 100.0 mg/kg/injection, schedule: Q04DX003 (ip), vehicle: saline
[3] = dose: 200.0 mg/kg/injection, schedule: Q01DX001 (ip), vehicle: saline
[4] = dose: 200.0 mg/kg/injection, schedule: Q04DX003 (ip), vehicle: saline
[5] = dose: 400.0 mg/kg/injection, schedule: Q01DX001 (ip), vehicle: saline
[6] = dose: 400.0 mg/kg/injection, schedule: Q04DX003 (ip), vehicle: saline
[7] = dose: 100.0 mg/kg/injection, schedule: Q04DX003 (ip), vehicle: saline with Tween-80
[8] = dose: 200.0 mg/kg/injection, schedule: Q04DX003 (ip), vehicle: saline with Tween-80
[9] = dose: 400.0 mg/kg/injection, schedule: Q04DX003 (ip), vehicle: saline with Tween-80
[10] = dose: 100.0 mg/kg/injection, schedule: Q04DX003 (ip), vehicle: Klucel (hydroxypropylcellulose) (HPC)
[11] = dose: 100.0 mg/kg/injection, schedule: Q01DX001 (ip), vehicle: carboxymethylcellulose (CMC)
[12] = dose: 400.0 mg/kg/injection, schedule: Q01DX001 (ip), vehicle: carboxymethylcellulose (CMC)
[13] = dose: 100.0 mg/kg/injection, schedule: Q01DX009 (ip), vehicle: saline with Tween-80
[14] = dose: 200.0 mg/kg/injection, schedule: Q01DX009 (ip), vehicle: saline with Tween-80
[15] = dose: 200.0 mg/kg/injection, schedule: Q04DX003 (ip), vehicle: Klucel (hydroxypropylcellulose) (HPC)
[16] = dose: 400.0 mg/kg/injection, schedule: Q01DX009 (ip), vehicle: saline with Tween-80
[17] = dose: 400.0 mg/kg/injection, schedule: Q04DX003 (ip), vehicle: Klucel (hydroxypropylcellulose) (HPC)
[18] = dose: 100.0 mg/kg/injection, schedule: Q01DX009 (ip), vehicle: Klucel (hydroxypropylcellulose) (HPC)
[19] = dose: 200.0 mg/kg/injection, schedule: Q01DX009 (ip), vehicle: Klucel (hydroxypropylcellulose) (HPC)
[20] = dose: 400.0 mg/kg/injection, schedule: Q01DX009 (ip), vehicle: Klucel (hydroxypropylcellulose) (HPC)
[21] = dose: 100.0 mg/kg/injection, schedule: Q04DX002 (ip), vehicle: Klucel (hydroxypropylcellulose) (HPC)
[22] = dose: 200.0 mg/kg/injection, schedule: Q04DX002 (ip), vehicle: Klucel (hydroxypropylcellulose) (HPC)
[23] = dose: 400.0 mg/kg/injection, schedule: Q04DX002 (ip), vehicle: Klucel (hydroxypropylcellulose) (HPC)

Measured: T/C

C(=C1/CC2CCC1C2)/c1ccccc1 (configuration not stated)
inactive: [1] 98 % of control | [2] 93 % of control | [3] 103 % of control | [4] 93 % of control | [5] 101 % of control | [6] 89 % of control

O=S(=O)(CC(Cl)c1ccc(Cl)cc1)c1ccccc1 (configuration not stated)
inactive: [1] 112 % of control | [3] 114 % of control | [5] 109 % of control

Nc1nc(N)c(-c2ccc(Cl)cc2)c(CNc2ccc([N+](=O)[O-])cc2)n1
inactive: [7] 109 % of control | [8] 95 % of control | [9] 95 % of control

CCCCCCCCCCCCCCN(C)C
inactive: dose: 25.0 mg/kg/injection, schedule: Q04DX003 (ip), vehicle: Klucel (hydroxypropylcellulose) (HPC) 107 % of control | dose: 50.0 mg/kg/injection, schedule: Q04DX003 (ip), vehicle: Klucel (hydroxypropylcellulose) (HPC) 108 % of control | [10] 94 % of control and 96 % of control

N#Cc1ccc(CC(O)(c2ccccc2)c2ccccc2)cc1
inactive: dose: 50.0 mg/kg/injection, schedule: Q01DX001 (ip), vehicle: carboxymethylcellulose (CMC) 106 % of control | [11] 101 % of control | dose: 200.0 mg/kg/injection, schedule: Q01DX001 (ip), vehicle: carboxymethylcellulose (CMC) 98 % of control | [12] 89 % of control

COC(=O)C1CC2c3ccccc3C1c1ccccc12 (configuration not stated)
inactive: [13] 110 % of control | [10] 108 % of control | dose: 176.0 mg/kg/injection, schedule: Q01DX001 (ip), vehicle: carboxymethylcellulose (CMC) 96 % of control and 92 % of control | [14] 89 % of control | [15] 97 % of control | dose: 264.0 mg/kg/injection, schedule: Q01DX001 (ip), vehicle: carboxymethylcellulose (CMC) 93 % of control | [12] 95 % of control | [16] 95 % of control | [17] 93 % of control | dose: 600.0 mg/kg/injection, schedule: Q01DX001 (ip), vehicle: carboxymethylcellulose (CMC) 98 % of control

Clc1ccc(N=Nc2ccccc2)cc1
inactive: [18] 98 % of control | [10] 95 % of control | [19] 91 % of control | [15] 101 % of control | [20] 96 % of control | [17] 105 % of control

CCOC(=O)c1ccc(S(=O)(=O)NCCCc2c(C)nc(N)[nH]c2=O)cc1
inactive: dose: 12.5 mg/kg/injection, schedule: Q01DX001 (ip), vehicle: saline with Tween-80 90 % of control | dose: 25.0 mg/kg/injection, schedule: Q01DX001 (ip), vehicle: saline with Tween-80 103 % of control | dose: 50.0 mg/kg/injection, schedule: Q01DX001 (ip), vehicle: saline with Tween-80 90 % of control

CCCC(C)(C)C(=O)Nc1cccc(O)c1
inactive: [7] 95 % of control | [8] 95 % of control | [9] 92 % of control

CCC(=O)C(CC)c1ccccc1 (configuration not stated)
inactive: [13] 95 % of control | [7] 102 % of control | [14] 94 % of control | [8] 97 % of control | [16] 100 % of control | [9] 97 % of control

C(=N/Sc1ccccc1)/c1ccccc1
inactive: [21] 98 % of control | [22] 98 % of control | [23] 112 % of control

O=C(NCC[N+](=O)[O-])c1ccccc1
inactive: dose: 50.0 mg/kg/injection, schedule: Q01DX009 (ip), vehicle: saline 97 % of control | dose: 100.0 mg/kg/injection, schedule: Q01DX009 (ip), vehicle: saline 93 % of control | [2] 92 % of control | dose: 200.0 mg/kg/injection, schedule: Q01DX009 (ip), vehicle: saline 95 % of control | [4] 96 % of control | [6] 100 % of control

O=C(O)c1cc(-c2ccccc2)nc2c([N+](=O)[O-])cccc12
inactive: dose: 75.0 mg/kg/injection, schedule: Q01DX001 (ip), vehicle: acetone 95 % of control | dose: 150.0 mg/kg/injection, schedule: Q01DX001 (ip), vehicle: acetone 92 % of control | dose: 300.0 mg/kg/injection, schedule: Q01DX001 (ip), vehicle: acetone 108 % of control

CC1(C)N=C(N)N=C(N)N1c1cccc(CCCc2ccccc2)c1
inactive: dose: 1.56 mg/kg/injection, schedule: Q01DX001 (ip), vehicle: saline 98 % of control | dose: 3.12 mg/kg/injection, schedule: Q01DX001 (ip), vehicle: saline 91 % of control | dose: 6.25 mg/kg/injection, schedule: Q01DX001 (ip), vehicle: saline 88 % of control | dose: 25.0 mg/kg/injection, schedule: Q01DX001 (ip), vehicle: saline 89 % of control

Cc1sc2c(c1-c1ccccc1)C(=O)CCCN2
inactive: [7] 94 % of control | [8] 100 % of control | [9] 100 % of control

CC1(C)CN(C(C)(C)C)CC(C)(C)C(=O)C1=O
inactive: dose: 50.0 mg/kg/injection, schedule: Q01DX001 (ip), vehicle: saline sonified 91 % of control | dose: 100.0 mg/kg/injection, schedule: Q01DX001 (ip), vehicle: saline sonified 98 % of control | dose: 200.0 mg/kg/injection, schedule: Q01DX001 (ip), vehicle: saline sonified 87 % of control

O=[N+]([O-])c1ccc(N/N=C/c2cccc(CO)c2)c([N+](=O)[O-])c1
inactive: [13] 98 % of control | [14] 95 % of control | [16] 100 % of control

CC/C(=N/N=C(N)N)C(=O)O
inactive: dose: 15.0 mg/kg/injection, schedule: Q01DX Z (ip), vehicle: carboxymethylcellulose (CMC) 102 % of control | dose: 30.0 mg/kg/injection, schedule: Q01DX Z (ip), vehicle: carboxymethylcellulose (CMC) 95 % of control | dose: 60.0 mg/kg/injection, schedule: Q01DX Z (ip), vehicle: carboxymethylcellulose (CMC) 103 % of control and 106 % of control | dose: 120.0 mg/kg/injection, schedule: Q01DX Z (ip), vehicle: carboxymethylcellulose (CMC) 96 % of control and 98 % of control | dose: 240.0 mg/kg/injection, schedule: Q01DX Z (ip), vehicle: carboxymethylcellulose (CMC) 100 % of control | dose: 480.0 mg/kg/injection, schedule: Q01DX Z (ip), vehicle: carboxymethylcellulose (CMC) 102 % of control

O=C(NCCCCCSC(=O)c1ccccc1)c1ccccc1
inactive: [21] 90 % of control | [22] 94 % of control | [23] 90 % of control

CN(C)c1ccc(N=Nc2ccc(C(C)(C)C)cc2)cc1
inactive: [13] 97 % of control | [7] 95 % of control | [14] 94 % of control | [8] 86 % of control | [16] 89 % of control | [9] 96 % of control

CS(=O)(=O)OCCBr
inactive: dose: 12.5 mg/kg/injection, schedule: Q04DX003 (ip), vehicle: saline 88 % of control | dose: 25.0 mg/kg/injection, schedule: Q04DX003 (ip), vehicle: saline 90 % of control | dose: 50.0 mg/kg/injection, schedule: Q04DX003 (ip), vehicle: saline 87 % of control | [11] 103 % of control

C[Si](C)(C)OSc1ccccc1[N+](=O)[O-]
inactive: dose: 12.5 mg/kg/injection, schedule: Q01DX009 (ip), vehicle: Klucel (hydroxypropylcellulose) (HPC) 93 % of control | dose: 25.0 mg/kg/injection, schedule: Q01DX009 (ip), vehicle: Klucel (hydroxypropylcellulose) (HPC) 92 % of control | dose: 50.0 mg/kg/injection, schedule: Q01DX009 (ip), vehicle: Klucel (hydroxypropylcellulose) (HPC) 93 % of control | [18] 104 % of control | [19] 95 % of control | [20] 97 % of control

O=C(CCl)Nc1ccc(O)c2ccccc12
inactive: dose: 75.0 mg/kg/injection, schedule: Q01DX001 (ip), vehicle: other 102 % of control | dose: 150.0 mg/kg/injection, schedule: Q01DX001 (ip), vehicle: other 91 % of control
